“And” between values parts separate entries of the source, which are not always exact repeats. Identical values can stand only once. Like-named read-outs stand apart in the source and are kept apart here.
Tests used:
Human galectin-1 [1] = biological target: T1, Human galectin-1 (Homo sapiens, UniProt P09382); assay: competitive fluorescence polarization assay, galectin-1; type: binding; settings: for Kd: galectin-1 0.5 µM, fluorescent probe 20 nM, read-out: Dissociation constant KD ± SEM, galectin-1
T1 construct: made in house
Description: Galectin-1, -3, -4C (C-terminal CRD), -4N (N-terminal CRD), -7, -8C, -8N, -9C, and -9N affinities for (aryltriazolyl)methyl galactopyranosyls 1a–n were determined in a competitive fluorescence polarization titration assay [[…]].
(§1) Human galectin-1 [36] and galectin-3 [37] were expressed and purified as earlier described. Fluorescence polarization experiments were performed on a PheraStarFS plate reader with software PHERAstar Mars version 2.10 R3 (BMG, Offenburg, Germany). Specific experimental conditions were a galectin-1 concentration of 0.5 µM together with the fluorescent probe (3,3’-dideoxy-3-[4-(fluorescein-5-ylcarbonylaminomethyl)-1H-1,2,3-triazol-1-yl]-3’-(3,5-dimethoxybenzamido)-1,1’-sulfanediyl-di-β-D-galactopyranoside) concentration of 20 nM and a galectin-3 concentration of 0.2 µM together with the fluorescent probe (3,3’-dideoxy-3-[4-(fluorescein-5-ylcarbonylaminomethyl)-1H-1,2,3-triazol-1-yl]-3’-(3,5-dimethoxybenzamido)-1,1’-sulfanediyl-di-β-D-galactopyranoside) concentration of 20 nM, respectively. […] Dissociation constants average and SEM were calculated from two to eight single point measurements showing between 20–80% inhibition.

galectin-3 [2] = biological target: T2, galectin-3 (Homo sapiens, UniProt P17931); assay: competitive fluorescence polarization assay, galectin-3; type: binding; settings: galectin-3 0.2 µM, fluorescent probe 20 nM; for Kd: read-out: Dissociation constant KD ± SEM, galectin-3
T2 construct: made in house
Description: Galectin-1, -3, -4C (C-terminal CRD), -4N (N-terminal CRD), -7, -8C, -8N, -9C, and -9N affinities for (aryltriazolyl)methyl galactopyranosyls 1a–n were determined in a competitive fluorescence polarization titration assay [[…]]. Compounds 1a–n had millimolar or higher affinities for all galectins except for galectins-1 and -3. […] Of particular interest is the different difluorinated aryls 1e–g, which show a reversed selectivity pattern. They display twofold preference for galectin-3 (1g), but their poor affinities limit their use as effective galectin-3 inhibitors. […] Monosaccharide derivatives with somewhat higher affinity for galectin-1 are known; dissociation constants down to 62 µM and selectivity of 8 over galectin-3 [34]. However, these inhibitors are larger and carry double modifications with an anomeric thiophenyl aglycon combined with a heteroaryltriazole moiety at galactose C3 that both form affinity and selectivity-enhancing interactions with galectin-1. Unfortunately, attempts to combine the anomeric 4-fluorophenyltriazolylmethyl moiety of compound 1b with such a galactose C3-thiazolyltriazole substituent reported to enhance affinity for galectin-1 [34] failed in our hands, why other additional substituents to combine with the 4-fluorophenyltriazolylmethyl moiety of compound 1b remain to be discovered.
as §1

Human galectin-1 [3] = biological target: T1, Human galectin-1; design: method as in PMID 15889175; settings: reference compounds; read-out: Dissociation constant KD, galectin-1; cited from earlier work
galectin-3 [4] = biological target: T2, galectin-3; design: method as in PMID 15889175; settings: reference compounds; read-out: Dissociation constant KD, galectin-3; cited from earlier work
[5] = ratio of galectin-3 KD to galectin-1 KD

T2 sequence (P17931 whole entry): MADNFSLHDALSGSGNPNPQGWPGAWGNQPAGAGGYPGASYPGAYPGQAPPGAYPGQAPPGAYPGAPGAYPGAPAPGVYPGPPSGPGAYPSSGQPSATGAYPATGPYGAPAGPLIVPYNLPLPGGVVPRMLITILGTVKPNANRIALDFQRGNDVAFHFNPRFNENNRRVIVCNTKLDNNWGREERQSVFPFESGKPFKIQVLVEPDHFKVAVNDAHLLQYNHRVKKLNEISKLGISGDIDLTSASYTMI
T1 sequence (P09382 whole entry): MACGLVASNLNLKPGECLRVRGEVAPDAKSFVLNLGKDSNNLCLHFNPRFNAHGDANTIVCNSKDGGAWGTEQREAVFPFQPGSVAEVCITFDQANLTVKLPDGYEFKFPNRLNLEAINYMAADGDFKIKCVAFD

Row | Structure (SMILES) | Kd (Human galectin-1 [1]) [µM] | Selectivity Galectin-1/3 (Human galectin-1 [1]; [5]) | Kd (galectin-3 [2]) [µM] | Dissociation constant KD ± SEM, galectin-3 (galectin-3 [2]) | Selectivity Galectin-1/3 (Human galectin-1 [1]; reference compounds, ratio from KD values of ref 35) | Kd (Human galectin-1 [3]) [µM] | Kd (galectin-3 [4]) [µM]
1 | OC[C@H]1O[C@H](Cn2cc(-c3ccccc3F)nn2)[C@H](O)[C@@H](O)[C@H]1O [1d, 1,2-Dideoxy-1-[4-(2-fluorophenyl)-1H-1,2,3-triazol-1-yl]-β-D-galactoheptulose] | 390 ± 38 | 1.3 | 500 ± 23 |  |  |  | 
2 | OC[C@H]1O[C@H](Cn2cc(-c3cc(F)cc(F)c3)nn2)[C@H](O)[C@@H](O)[C@H]1O [1f, 1,2-Dideoxy-1-[4-(3,5-difluorophenyl)-1H-1,2,3-triazol-1-yl]-β-D-galactoheptulose] | 1100 ± 43 | 0.7 | 790 ± 48 |  |  |  | 
3 | OC[C@H]1O[C@H](Cn2cc(-c3ccc(F)cc3F)nn2)[C@H](O)[C@@H](O)[C@H]1O [1g, 1,2-Dideoxy-1-[4-(2,4-difluorophenyl)-1H-1,2,3-triazol-1-yl]-β-D-galactoheptulose] | 1100 ± 16 | 0.4 | 490 ± 55 |  |  |  | 
4 | Cc1ccc(-c2cn(C[C@H]3O[C@H](CO)[C@H](O)[C@H](O)[C@H]3O)nn2)cc1 [1h, 1,2-Dideoxy-1-[4-(4-methylphenyl)-1H-1,2,3-triazol-1-yl]-β-D-galactoheptulose] | 1000 ± 130 | >3 | > 3000 | undetectable |  |  | 
5 | OC[C@H]1O[C@H](Cn2cc(-c3ccc(OC(F)(F)F)cc3)nn2)[C@H](O)[C@@H](O)[C@H]1O [1j, 1,2-Dideoxy-1-[4-(4-trifluoromethoxyphenyl)-1H-1,2,3-triazol-1-yl]-β-D-galactoheptulose] | 500 ± 59 | 1.4 | 700 ± 52 |  |  |  | 
6 | OC[C@H]1O[C@H](Cn2cc(-c3ccc(C(F)(F)F)cc3)nn2)[C@H](O)[C@@H](O)[C@H]1O [1k, 1,2-Dideoxy-1-[4-(4-trifluoromethylphenyl)-1H-1,2,3-triazol-1-yl]-β-D-galactoheptulose] | 240 ± 61 | 3.5 | 830 ± 38 |  |  |  | 
7 | OC[C@H]1O[C@H](Cn2cc(-c3cccc4ccccc34)nn2)[C@H](O)[C@@H](O)[C@H]1O [1l, 1,2-Dideoxy-1-(4-naphth-1-yl-1H-1,2,3-triazol-1-yl)-β-D-galactoheptulose] | 180 ± 20 | 2.6 | 470 ± 95 |  |  |  | 
8 | OC[C@H]1O[C@@H](Cn2cc(-c3ccc(-c4ccccc4)cc3)nn2)[C@H](O)[C@@H](O)[C@H]1O [1m, 1,2-Dideoxy-1-[4-(4-biphenyl)-1H-1,2,3-triazol-1-yl]-β-D-galactoheptulose] | 710 ± 12 | 1.7 | 1200 ± 11 |  |  |  | 
9 | OC[C@H]1O[C@H](Cn2cc(-c3ccc4ccccc4c3)nn2)[C@H](O)[C@@H](O)[C@H]1O [1n, 1,2-Dideoxy-1-(4-naphth-2-yl-1H-1,2,3-triazol-1-yl)-β-D-galactoheptulose] | 1500 ± 290 | 1.1 | 1700 ± 190 |  |  |  | 
10 | CO[C@@H]1O[C@H](CO)[C@@H](O[C@@H]2O[C@H](CO)[C@H](O)[C@H](O)[C@H]2O)[C@H](O)[C@H]1O [compound 12, methyl β-lactoside] |  |  |  |  | 1.2 | 190 | 220

More lines, main results first:

Row | Kd (Human galectin-1 [1]) [µM] | Selectivity Galectin-1/3 (Human galectin-1 [1]; [5]) | Kd (galectin-3 [2]) [µM] | Dissociation constant KD ± SEM, galectin-3 (galectin-3 [2]) | Selectivity Galectin-1/3 (Human galectin-1 [1]; reference compounds, ratio from KD values of ref 35) | Structure (SMILES) | Kd (Human galectin-1 [3]) [µM] | Kd (galectin-3 [4]) [µM]
11 | 600 ± 48 | 1.5 | 870 ± 37 |  |  | OC[C@H]1O[C@H](Cn2cc(-c3ccccc3)nn2)[C@H](O)[C@@H](O)[C@H]1O [1a, 1,2-Dideoxy-1-(4-phenyl-1H-1,2,3-triazol-1-yl)-β-D-galactoheptulose] |  | 
12 | 170 ± 2 | 4 and 4.2 | 710 ± 36 |  |  | OC[C@H]1O[C@H](Cn2cc(-c3ccc(F)cc3)nn2)[C@H](O)[C@@H](O)[C@H]1O [1b, 1,2-Dideoxy-1-[4-(4-fluorophenyl)-1H-1,2,3-triazol-1-yl]-β-D-galactoheptulose] |  | 
13 | 1200 ± 120 | 0.6 | 720 ± 64 |  |  | OC[C@H]1O[C@H](Cn2cc(-c3cccc(F)c3)nn2)[C@H](O)[C@@H](O)[C@H]1O [1c, 1,2-Dideoxy-1-[4-(3-fluorophenyl)-1H-1,2,3-triazol-1-yl]-β-D-galactoheptulose] |  | 
14 | 860 ± 150 | 0.7 | 610 ± 160 |  |  | OC[C@H]1O[C@H](Cn2cc(-c3ccc(F)c(F)c3)nn2)[C@H](O)[C@@H](O)[C@H]1O [1e, 1,2-Dideoxy-1-[4-(3,4-difluorophenyl)-1H-1,2,3-triazol-1-yl]-β-D-galactoheptulose] |  | 
15 | 990 ± 23 | >3 | > 3000 | undetectable |  | Cc1cccc(-c2cn(C[C@H]3O[C@H](CO)[C@H](O)[C@H](O)[C@H]3O)nn2)c1 [1i, 1,2-Dideoxy-1-[4-(3-methylphenyl)-1H-1,2,3-triazol-1-yl]-β-D-galactoheptulose] |  | 
